Each block holds one compound with its values, some of them ahead of it.
What was measured:
[1] = molecular target: T1, BCL2:BIM complex (Homo sapiens, UniProt P10415); experiment: Flow cytometry of BH3 mimetic treated cells, heterodimer-specific vs monomer antibodies (FIG. 17); assay type: cell-based; set-up: endogenous in cells; details: detected with 2H3 (BCL2:BIM) and F05 (MCL-1:BIM)
Procedure: This shift is detected by MCL-1:BIM specific antibody (F05) relative to total MCL-1 in the cell. In this experiment, cells are treated with specific BCL2 targeted BH3 mimetic (AZD4320, Medchemexpress), fixed, permeabilized, and stained with heterodimer-specific antibodies and standard antibodies against monomers. Signals are measured on FLOW Cytometer, show relative signal and the data shown in FIG. 17 is a ratio of complex/monomer signal. FIG. 17 is a graph showing a BCL2:BIM complex specific antibody that tracts with complex disruption by a BH3 mimetic.

[2] = molecular target: T1, BCL2:BIM complex; experiment: PRIMAB intra-cellular immunofluorescent staining and flow cytometry in U2932 cells (FIG. 19); assay type: cell-based; set-up: endogenous in cells; host or cells: U2932; details: BCL2 primed U2932 cells
Source text: These shifts match BH3 mimetic selectivity.

[3] = system: Mcl-1:Bim complex; experiment: Heterodimer to monomer ratio by flow cytometry in SET2 cells (FIG. 18); assay type: cell-based; details: A1155463 treated SET2 cells, detected with F05
Procedure: (§1) FIG. 18 is a graph showing a ratio of measured heterodimer to monomer in Bcl-xL dependent cell lines: Bcl-2:Bim, Mcl-1:Bim, and Bcl-xL:Bim. Bcl-xL:Bim shifts against Bcl-xL and Mcl-1 upon treatment. In this experiment, a shift away from the complex is detected when the sample is treated with BCLXL targeted BH3 mimetic (A1155463).

[4] = system: Mcl-1:Bim complex; experiment: Heterodimer to monomer ratio by flow cytometry in UKE-1 cells (FIG. 18); assay type: cell-based; details: A1155463 treated UKE-1 cells, detected with F05
Procedure: as §1

[5] = molecular target: BCLXL: BIM (Homo sapiens, UniProt Q07817); experiment: PRIMAB intra-cellular immunofluorescent staining and flow cytometry in U266B1 cells (FIG. 19); details: BCLXL primed U266B1 cells, HSBXB PRIMAB
Chain of BCLXL: BIM (Q07817 whole entry): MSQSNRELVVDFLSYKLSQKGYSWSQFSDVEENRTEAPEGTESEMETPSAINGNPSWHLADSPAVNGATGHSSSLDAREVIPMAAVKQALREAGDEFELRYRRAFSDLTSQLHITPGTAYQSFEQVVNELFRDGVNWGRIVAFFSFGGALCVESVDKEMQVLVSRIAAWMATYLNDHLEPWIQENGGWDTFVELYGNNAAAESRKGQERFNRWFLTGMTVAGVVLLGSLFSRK
Procedure: Priming complexes in leukemia cells were measured by intra-cellular immunofluorescent staining with PRIMABs and detected by flow cytometry.

T1 sequence (P10415 whole entry, one chain of several): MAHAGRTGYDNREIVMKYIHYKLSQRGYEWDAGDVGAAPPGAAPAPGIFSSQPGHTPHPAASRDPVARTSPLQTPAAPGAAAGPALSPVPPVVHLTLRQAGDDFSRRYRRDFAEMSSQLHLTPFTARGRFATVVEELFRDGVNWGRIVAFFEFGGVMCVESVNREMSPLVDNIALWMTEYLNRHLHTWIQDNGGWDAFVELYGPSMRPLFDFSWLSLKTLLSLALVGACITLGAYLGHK

Structure (SMILES): CN(CCO)CC[C@H](CSc1ccccc1)Nc1ccc(S(=O)(=O)NC(=O)c2ccc(N3CCC([C@@H](O)c4ccccc4-c4ccc(Cl)cc4)CC3)cc2)cc1S(=O)(=O)C(F)(F)F [AZD4320]
ratio of complex/monomer signal [1]: shift from the BCL2:BIM complex to the MCL-1:BIM complex

priming complex shift by PRIMAB readout [2]: disruption of BCL2: BIM complex
Structure (SMILES): CC1(C)CCC(CN2CCN(c3ccc(C(=O)NS(=O)(=O)c4ccc(NCC5CCOCC5)c([N+](=O)[O-])c4)c(Oc4cnc5[nH]ccc5c4)c3)CC2)=C(c2ccc(Cl)cc2)C1 [ABT-199]

priming complex shift by PRIMAB readout [5]: BCLXL: BIM shift
Structure (SMILES): CN(C)CC#Cc1ccc(OCCCc2sc(N3CCc4cccc(C(=O)Nc5nc6ccccc6s5)c4C3)nc2C(=O)O)c(F)c1 [A1155463]
ratio of measured heterodimer to monomer [3]: shift and “priming” to MCL1:BIM complex | ratio of measured heterodimer to monomer [4]: shift and “priming” to MCL1:BIM complex

Source: patent publication US20240425583A1, “METHODS AND COMPOSITIONS RELATED TO MCL-1 AND BIM HETERODIMER ANTIBODIES” (priority 2021, published 2024)
